In experiment [1] the test system is amino acid at a terminal position of a polypeptide. As to conditions: Table 2; amino acid identity at a terminal position (phosphotyrosine also internal); inferred from literature and/or demonstrated by the inventors; cited from earlier work.
In experiment [2] the test system is proline iminopeptidase (PIP). The experiment in a line: Terminal amino acid cleavage of peptide-linker conjugates by PIP (LCMS). The format is biochemical. As to conditions: monitored by LCMS. How it is done: (§1) The peptide-linker conjugates were evaluated for amino acid cleavage at peptide N-termini by N-terminal aminopeptidases (Table 6, below).
(§2) The peptide-linker conjugates shown in Table 6 were incubated with either proline iminopeptidase (“PIP”) or rat aminopeptidase N (“Rat APN”), and peptide cleavage was monitored by LCMS. All other cleavage reactions were measured in a similar manner.

Experiment [3] has as its target T1, rat aminopeptidase N (Rat APN) (Rattus norvegicus, UniProt P15684).
T1 sequence (P15684 1-965): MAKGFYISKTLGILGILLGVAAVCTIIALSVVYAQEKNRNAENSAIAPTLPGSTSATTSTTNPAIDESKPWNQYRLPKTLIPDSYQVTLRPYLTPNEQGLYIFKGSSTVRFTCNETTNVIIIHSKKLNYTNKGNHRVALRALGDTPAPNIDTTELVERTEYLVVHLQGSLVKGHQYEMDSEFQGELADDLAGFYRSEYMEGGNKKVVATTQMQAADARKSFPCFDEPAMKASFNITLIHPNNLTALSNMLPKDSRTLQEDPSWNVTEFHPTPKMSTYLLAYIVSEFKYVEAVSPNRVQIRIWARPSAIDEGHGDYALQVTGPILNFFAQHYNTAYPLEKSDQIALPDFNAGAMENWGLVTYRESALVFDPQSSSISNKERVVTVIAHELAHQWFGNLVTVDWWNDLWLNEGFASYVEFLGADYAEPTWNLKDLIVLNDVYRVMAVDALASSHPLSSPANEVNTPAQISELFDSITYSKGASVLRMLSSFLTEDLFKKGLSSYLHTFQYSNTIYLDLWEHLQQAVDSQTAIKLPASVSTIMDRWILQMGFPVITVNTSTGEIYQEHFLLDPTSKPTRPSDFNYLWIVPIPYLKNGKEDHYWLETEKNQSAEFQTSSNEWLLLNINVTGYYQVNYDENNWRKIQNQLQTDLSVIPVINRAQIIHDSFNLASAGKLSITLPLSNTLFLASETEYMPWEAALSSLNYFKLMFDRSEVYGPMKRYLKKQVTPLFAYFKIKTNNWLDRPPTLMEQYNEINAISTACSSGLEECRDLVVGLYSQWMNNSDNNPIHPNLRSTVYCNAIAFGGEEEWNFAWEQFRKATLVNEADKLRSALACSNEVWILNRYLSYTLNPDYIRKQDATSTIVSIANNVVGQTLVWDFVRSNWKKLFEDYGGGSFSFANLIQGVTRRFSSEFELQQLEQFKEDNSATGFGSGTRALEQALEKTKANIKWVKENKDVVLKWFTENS
As to the kind of experiment: Terminal amino acid cleavage of peptide-linker conjugates by Rat APN (LCMS). The format is biochemical. Conditions: monitored by LCMS. The procedure:
as §1, §2

Entries after “also recorded” stand apart in the source; their conditions may differ. Square brackets hold non-standard residues; d marks the D form. Ends that are not written are not given here. Lys(N3) = [N-]=[N+]=NCCCC[C@H](N)C(=O)O

As to “Rattus norvegicus p62 protein: SEQ ID NO: 124”, the “Binding Pref.” value in experiment [1] was “K, R, H,; also recorded: W, F, Y”.
As for “8: peptide-linker conjugate: FPFPFP{LYS(N3)} (SEQ ID NO. 230), oligo linker (FPFPFP[Lys(N3)]; also: oligo linker, attachment not given here) [Entry 8]”, the “Cleaved by PIP” value in experiment [2] was “Yes”.
As for “4: peptide-linker conjugate: KKMKKM{LYS(N3)} (SEQ ID NO. 226), PEG4 linker (KKMKKM[Lys(N3)]; also: PEG4 linker, attachment not given here) [Entry 4]”, the “Cleaved by Rat APN” value in experiment [3] is recorded as “Yes”.
Take “H. sapiens Src tyrosine kinase SH2 domain: SEQ ID NO: 118”: the “Binding Pref.” value in experiment [1] was “phospho-Y”.
Consider “Entry 5: peptide-linker conjugate: DDMDDM{LYS(N3)} (SEQ ID NO. 227), oligo linker (DDMDDM[Lys(N3)]; also: oligo linker, attachment not given here)”, for which the “Cleaved by Rat APN” value in experiment [3] is “Yes”.
For the substance “H. sapiens p62 fragment 1-310: SEQ ID NO: 120”, the “Binding Pref.” value in experiment [1] is recorded as “K, R, H,; also recorded: W, F, Y”.
On to “6: peptide-linker conjugate: FFMFFM{LYS(N3)} (SEQ ID NO. 228), oligo linker (FFMFFM[Lys(N3)]; also: oligo linker, attachment not given here) [Entry 6]”, for which the “Cleaved by Rat APN” value in experiment [3] was “Yes”.
Same read-out and setting: in the case of “7: peptide-linker conjugate: AAMAAM{LYS(N3)} (SEQ ID NO. 229), oligo linker (AAMAAM[Lys(N3)]; also: oligo linker, attachment not given here) [Entry 7]” it was “Yes”; in that of “2: peptide-linker conjugate: KKMKKM{LYS(N3)} (SEQ ID NO. 224), oligo linker (KKMKKM[Lys(N3)]; also: oligo linker, attachment not given here) [Entry 2]”, “No”; in that of “3: peptide-linker conjugate: KKMKKM{LYS(N3)} (SEQ ID NO. 225), oligo-PEG linker (KKMKKM[Lys(N3)]; also: oligo-PEG linker, attachment not given here) [Entry 3]”, “No”.
As to “10: peptide-linker conjugate: KPKPKP{LYS(N3)} (SEQ ID NO. 232), oligo linker (KPKPKP[Lys(N3)]; also: oligo linker, attachment not given here) [Entry 10]”, the “Cleaved by PIP” value in experiment [2] is “No”.
In the case of “11: peptide-linker conjugate: KPKPKP{LYS(N3)} (SEQ ID NO. 233), PEG4 linker (KPKPKP[Lys(N3)]; also: PEG4 linker, attachment not given here) [Entry 11]”, the “Cleaved by PIP” value in experiment [2] is “Yes”.
As to “H. sapiens p62 fragment 126-180: SEQ ID NO: 122”, the “Binding Pref.” value in experiment [1] is listed as “K, R, H,; also recorded: W, F, Y”.
On to “9: peptide-linker conjugate: DPDPDP{LYS(N3)} (SEQ ID NO. 231), oligo linker (DPDPDP[Lys(N3)]; also: oligo linker, attachment not given here) [Entry 9]”, for which the “Cleaved by PIP” value in experiment [2] is recorded as “Yes”.
“H. sapiens p62 fragment 1-180: SEQ ID NO: 121”: the “Binding Pref.” value in experiment [1] is given as “K, R, H,; also recorded: W, F, Y”.

(Values after US12065466B2, “Methods and compositions for protein sequencing” (Quantum-Si Incorporated, priority 2020, dated 2024).)
